# From US20240301319A1, “PERFUMING COMPOSITIONS” (FIRMNICH SA, priority 2017, published 2024)
# Assays:
# [1] = Volatility of perfuming compounds (Tables 4 to 10), with top/middle/bottom note type; type: physicochemical
# Summary of the method: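 Note type follows from air volatility (μg/l): bottom 49–0.1, middle 99–50, top 70,000–100. Compounds are listed within watery, green, fruity, citrus, sweet, gourmand and woody families.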
# [2] = Odor threshold and odor value of perfuming compounds (Tables 4 to 10)
# [3] = Log P (n-octanol/water) of perfuming compounds (Tables 4 to 10)
# [4] = Table 6, perfuming compounds having a fruity note
# [5] = Table 8, perfuming compounds having a sweet note
# [6] = perfuming compounds having a green note
Compound,"Volatility [1, 4]","Type ([1]; Table 6, perfuming compounds having a fruity note, note type by volatility)","Volatility [1, 5]","Type ([1]; Table 8, perfuming compounds having a sweet note, note type by volatility)","Volatility ([1]; Table 9, gourmand note)","Type ([1]; Table 9, perfuming compounds having a gourmand note, note type by volatility)","Odor Threshold [2, 4]","Odor Value [2, 4]","Odor Threshold [2, 5]","Odor Value [2, 5]","Odor Threshold ([2]; Table 9, gourmand note)","Log P (n-octanol/water) [3, 4]","Log P (n-octanol/water) [3, 5]","Log P (n-octanol/water) ([3]; Table 9, gourmand note)","Type ([1]; note type (Top/Middle/Bottom) by volatility, perfuming compounds having a green note)","Volatility (μg/l air) [1, 6]","Odor Threshold (μg/l air) [2, 6]","Log P (n-octanol/water) ([3]; n-octanol/water, perfuming compounds having a green note)"
COc1ccc(CCC(C)=O)cc1 [4-(4-METHOXYPHENYL)-2-BUTANONE],5.58 μg/l air,Bottom,5.58 μg/l air,Bottom,5.58 μg/l air,Bottom,5.88E−06 μg/l air,9.49E+05,5.88E−06 μg/l air,9.49E+05,5.88E−06 μg/l air,2.06,2.06,2.06,,,,
CCCOC(C)OCCc1ccccc1 (stereo not drawn) [1-PHENYL-2-(1-PROPOXYETHOXY)ETHANE],,,,,,,,,,,,,,,Middle,59.63 μg/l air,1.52E−03 μg/l air,3.58
